This note sets out measurements from patent US20250179057A1, “MEK IMMUNE ONCOLOGY INHIBITORS AND THERAPEUTIC USES THEREOF” (Immuneering Corporation, priority 2022, published 2025).

Where a name gives a salt, the structure may show the parent alone.

Data set [1] concerns phospho-ERK in A549 (KRAS G12S) cells. In words: Cell-based pERK (pERK:tERK) in A549 cells. The settings on record: for pERK:tERK (10 nM 2 h A549): Phospho-ERK Screen in A549 (KRAS G12S), head 10 nM 2 h, title 10 μM for 2 hours; for IC50 / activity at 0.01 µM: Homo sapiens; for IC50: A549, 12-point dose; for activity at 0.01 µM: A549, 2 h, read-out: A549-pERK (10 nM, 2 h). The essentials: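 Readout was pERK versus tERK by Western blot with IRDye-labelled secondary antibodies, imaged and quantified on a LI-COR Odyssey. Lysates were loaded at 1 mg/mL protein after Bradford estimation.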

The test system of the next data set is Caco-2 cells. In words: Caco-2 bidirectional permeability (absorption & efflux). The settings on record: Example 47. For orientation: Caco-2 cells form a polarised layer with tight junctions and transporters.
The target of a further data set is CYP2D6 (Homo sapiens, UniProt P10635). Kind of data set: CYP450 panel inhibition in human liver microsomes, 2D6 (dextromethorphan). The settings on record: 10 μM, substrate dextromethorphan. Background: Microsomes from liver hold many membrane-bound enzymes, among them those of drug oxidation.
The target of a further data set is CYP3A4 (Homo sapiens, UniProt P08684). Kind of data set: CYP450 panel inhibition in human liver microsomes, 3A4 (midazolam / testosterone). The settings on record: 10 μM; for CYP-3A4 (Midazolam) mean percentage CYP inhibition: substrate midazolam; for CYP-3A4 (Testosterone) mean percentage CYP inhibition: substrate testosterone.
Another data set in a line: PAMPA (pH 7.4). Format: in vitro ADME. The settings on record: PAMPA. In general terms: The PAMPA barrier holds no transporters, so it reflects passive diffusion.
Data set [2] in a line: Hepatocyte stability, human. The format is in vitro ADME. The settings on record: 0.5 million cells/ml; for half-life at 2 μM: human hepatocytes, 120 min; for CLint scaled at 2 μM: human, hepatocytes. As to the method:
(§1) In this study, human, cynomolgus monkey, beagle dog, wistar hannover rat, and balb/c mouse hepatocyle stability was determined.

Data set [3] is described as follows: Hepatocyte stability, wistar hannover rat. Format: in vitro ADME. The settings on record: 0.5 million cells/ml; for CLint scaled at 2 μM: Wistar Hannover, rat, hepatocytes; for half-life at 2 μM: wistar hannover rat hepatocytes. As to the method: as §1
Data set [4] can be described thus: Hepatocyte stability, balb/c mouse. The format is in vitro ADME. The settings on record: 0.5 million cells/ml; for CLint scaled at 2 μM: BALB/c, mouse, hepatocytes; for half-life at 2 μM: balb/c mouse hepatocytes. As to the method:
as §1

Where [5] appears, read: read-out: CLint (L/hr/kg) (converted).

CYP3A4, sequence (P08684 whole entry, the tested form may be a part): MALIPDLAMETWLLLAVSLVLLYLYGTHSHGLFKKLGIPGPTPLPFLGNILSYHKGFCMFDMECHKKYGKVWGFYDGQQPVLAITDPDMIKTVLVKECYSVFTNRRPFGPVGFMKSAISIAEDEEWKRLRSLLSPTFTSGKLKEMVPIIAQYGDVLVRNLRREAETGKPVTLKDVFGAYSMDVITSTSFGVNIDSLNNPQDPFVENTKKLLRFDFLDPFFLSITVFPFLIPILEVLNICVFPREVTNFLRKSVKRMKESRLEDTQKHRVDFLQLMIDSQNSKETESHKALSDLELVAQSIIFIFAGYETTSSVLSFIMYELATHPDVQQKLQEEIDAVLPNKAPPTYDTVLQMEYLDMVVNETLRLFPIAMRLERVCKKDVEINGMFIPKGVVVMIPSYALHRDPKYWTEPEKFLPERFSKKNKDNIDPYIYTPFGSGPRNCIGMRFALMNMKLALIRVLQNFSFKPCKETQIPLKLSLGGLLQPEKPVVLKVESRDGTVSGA
CYP2D6, sequence (P10635 whole entry): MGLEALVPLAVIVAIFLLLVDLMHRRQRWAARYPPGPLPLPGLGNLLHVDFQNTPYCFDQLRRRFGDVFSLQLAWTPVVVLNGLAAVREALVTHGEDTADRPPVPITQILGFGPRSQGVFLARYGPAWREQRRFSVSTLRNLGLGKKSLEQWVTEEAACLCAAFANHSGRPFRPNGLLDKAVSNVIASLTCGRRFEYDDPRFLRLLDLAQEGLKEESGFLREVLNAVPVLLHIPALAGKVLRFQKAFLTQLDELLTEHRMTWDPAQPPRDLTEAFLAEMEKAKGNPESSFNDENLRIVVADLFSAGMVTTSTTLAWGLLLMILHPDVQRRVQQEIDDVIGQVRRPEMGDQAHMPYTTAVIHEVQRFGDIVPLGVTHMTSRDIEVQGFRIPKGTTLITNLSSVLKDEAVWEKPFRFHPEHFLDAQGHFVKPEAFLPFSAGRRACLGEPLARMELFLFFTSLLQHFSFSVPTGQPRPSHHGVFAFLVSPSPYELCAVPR
Protocol for PAMPA (pH 7.4): Each stock solution was diluted to 50 M in pH 7.4 Prisma HT buffer (pION) and 200 μl was added to each well of the donor plate in triplicate. The polyvinylidene fluoride (PVDF, 0.45 μm) filter membrane on the acceptor plate was coated with 5 μl gastrointestinal tract lipid formulation (GIT-0, pION) and to each well of the acceptor plate, 200 μl of acceptor sink buffer (pION) was added. The acceptor filter plate was then carefully placed on top of the donor plate to form a sandwich. The sandwich was incubated at 25° C. for 4 h without stirring. UV-vis spectra of the solutions in the blank, reference, acceptor and donor plates were measured using a microplate reader (Tecan Infinite 200PRO M Nano Plus). Permeability values were calculated using the PAMPA explorer software v.

Regarding `CCCS(=O)(=O)Nc1cccc(Cc2c(CN3CCNCC3)c3cc(Cl)c(OC(=O)N(C)C)cc3oc2=O)c1F` [Compound 167], the “pERK:tERK (10 nM 2 h A549)” value in data set [1] is on record as 27 (n = 2). Also, in the data set with Caco-2 cells, the “A − B Permeability Ranking” value was “Lower”, the “Mean Efflux Ratio” value is 23.2, the “Mean Papp A − B (10^−6 cm/s)” value is 0.845 10^−6 cm/s and the “Mean Papp B − A (10^−6 cm/s)” value is 19.6 10^−6 cm/s. For the same compound, the “CYP-2D6 (Dextromethorphan) mean percentage CYP inhibition” value on CYP2D6 worked out at 10.1%. At CYP3A4, the “CYP-3A4 (Midazolam) mean percentage CYP inhibition” value came out at 54.8% and the “CYP-3A4 (Testosterone) mean percentage CYP inhibition” value worked out at 51.2%.
With `CNS(=O)(=O)Nc1nccc(Cc2c(CN(C)C)c3ccc(OC(=O)N(C)C)cc3oc2=O)c1F` [Compound 124], the “A549-pERK (10 nM, 2 h)” value in data set [1] (10 nM, 2 h, phospho- to total protein ratio normalized to DMSO control (Table 9)) is 94.6. In the data set on Caco-2 cells, the “A − B Permeability Ranking” value was “Higher”, the “Mean Efflux Ratio” value stood at 5.12, the “Mean Papp A − B (10^−6 cm/s)” value is recorded as 3.51 10^−6 cm/s and the “Mean Papp B − A (10^−6 cm/s)” value is 18.0 10^−6 cm/s. Further, the “CYP-2D6 (Dextromethorphan) mean percentage CYP inhibition” value on CYP2D6 is on record as 10.8%. On CYP3A4, the “CYP-3A4 (Midazolam) mean percentage CYP inhibition” value worked out at 63.2% and the “CYP-3A4 (Testosterone) mean percentage CYP inhibition” value came out at 62.6%.
Broadly, the IC50 is the point on the concentration scale where inhibition reaches its midpoint. The term Papp denotes the rate of passage across a membrane or cell layer, normalised by area and donor concentration. Consider `Cn1cnc2c(F)c(Nc3ccc(Br)cc3Cl)c(C(=O)NOCCO)cc21` [Reference-1, Selumetinib], for which the “A549 pERK:tERK ratio [10 nM; 2 hr]” value in data set [1] (10 nM, 2 hr) worked out at 0.56. This compound displayed an IC50 in data set [1] of 7.2 nM. The compound further registered a Papp at 4 h, 50 μM in “PAMPA (pH 7.4)” (pH = 7.4) of 29 ×10⁻⁶ cm/s.
As a reminder, the half-life is the time needed for the level to fall by half in the phase considered. Read a high half-life as slow loss. For `CCN(C)Cc1c(Cc2cccc(NS(=O)(=O)NC)c2F)c(=O)oc2cc(OC(=O)N(C)C)c(F)cc12` [Compound 238], the activity at 0.01 µM in data set [1] came out at 68.4%. Moreover, the Papp at 4 h, 50 μM in the data set “PAMPA (pH 7.4)” (pH = 7.4 (Table 14)) stood at 62 ×10⁻⁶ cm/s. Also, the results for the half-life at 2 μM in data set [2], in data set [3] and in data set [4] were 1.07 h, 0.943 h and 2.48 h, respectively. The CLint scaled at 2 μM in data set [2] (setting [5]) was 3.51 L/h/kg; in data set [2] (read-out: CLint (mL/min/kg)), 3.5 L/h/kg; in data set [3] (setting [5]) it was 3.97 L/h/kg; in data set [3] (read-out: CLint (mL/min/kg)), 3.97 L/h/kg; in data set [4] (setting [5]) it was 6.57 L/h/kg; in data set [4] (read-out: CLint (mL/min/kg)) it was 6.6 L/h/kg. In addition, the “A − B Permeability Ranking” value with Caco-2 cells is recorded as “Higher”.
For the compound `CNS(=O)(=O)Nc1cccc(Cc2c(CN3CCNCC3)c3cc(Cl)c(OC(=O)N(C)C)cc3oc2=O)c1Cl` [Compound 256, 6-chloro-3-(2-chloro-3-((N-methylsulfamoyl)amino)benzyl)-2-oxo-4-(piperazin-1-ylmethyl)-2H-chromen-7-yl dimethylcarbamate hydrochloride], the “pERK:tERK (10 nM 2 h A549)” value in data set [1] was 14. The compound further returned a Papp at 4 h, 50 μM in the data set “PAMPA (pH 7.4)” (pH = 7.4 (Table 14)) of 4 ×10⁻⁶ cm/s. Also, the half-life at 2 μM was 15.4 h in data set [2], 1.75 h in data set [3] and 3.28 h in data set [4]. Moreover, the CLint scaled at 2 μM in data set [2] (setting [5]) was 0.242 L/h/kg; in data set [2] (read-out: CLint (mL/min/kg)), 0.242 L/h/kg; in data set [3] (setting [5]), 2.12 L/h/kg; in data set [3] (read-out: CLint (mL/min/kg)), 2.12 L/h/kg; in data set [4] (setting [5]), 4.98 L/h/kg; in data set [4] (read-out: CLint (mL/min/kg)), 4.98 L/h/kg. For the same compound, in the data set with Caco-2 cells, the “A − B Permeability Ranking” value is listed as “Higher”. Also, on CYP3A4, the “CYP-3A4 (Testosterone) mean percentage CYP inhibition” value is on record as 69.2%.
Turning to `CCN(C)Cc1c(Cc2cccc(NS(=O)(=O)NC)c2Cl)c(=O)oc2cc(OC(=O)N(C)C)ccc12` [Compound 245, 3-(2-chloro-3-((N-methylsulfamoyl)amino)benzyl)-4-((ethyl(methyl)amino)methyl)-2-oxo-2H-chromen-7-yl dimethylcarbamate], the activity at 0.01 µM in data set [1] worked out at 68.8%. Also, the “pERK:tERK (10 nM 2 h A549)” value in data set [1] stood at 69. In the data set “PAMPA (pH 7.4)” (pH = 7.4 (Table 14)), the Papp at 4 h, 50 μM turned out to be 53 ×10⁻⁶ cm/s. Also, the half-life at 2 μM in data set [2] worked out at 0.703 h; in data set [3], 0.748 h; in data set [4], 2.17 h. The CLint scaled at 2 μM in data set [2] (setting [5]) is 5.32 L/h/kg; in data set [2] (read-out: CLint (mL/min/kg)), 5.32 L/h/kg; in data set [3] (setting [5]) it was 5 L/h/kg; in data set [3] (read-out: CLint (mL/min/kg)), 5 L/h/kg; in data set [4] (setting [5]) it was 7.54 L/h/kg; in data set [4] (read-out: CLint (mL/min/kg)), 7.56 L/h/kg. For the same compound, the “A − B Permeability Ranking” value in the data set with Caco-2 cells is reported as “Higher”. In addition, at CYP3A4, the “CYP-3A4 (Midazolam) mean percentage CYP inhibition” value is recorded as 42.3%. On CYP3A4, the “CYP-3A4 (Testosterone) mean percentage CYP inhibition” value is reported as 72.8%.
Regarding `CNS(=O)(=O)Nc1nccc(Cc2c(C)c3ccc(Oc4ncccn4)cc3oc2=O)c1F` [Reference-2, reference compound], the IC50 in data set [1] came to 7.2 nM. This compound registered a Papp at 4 h, 50 μM in the data set “PAMPA (pH 7.4)” (pH = 7.4) of 29 ×10⁻⁶ cm/s.
As to `CNS(=O)(=O)Nc1cccc(Cc2c(CN3CCNCC3)c3ccc(OC(=O)N(C)C)cc3oc2=O)c1Cl` [Compound 246, 3-(2-chloro-3-((N-methylsulfamoyl)amino)benzyl)-2-oxo-4-(piperazin-1-ylmethyl)-2H-chromen-7-yl dimethylcarbamate hydrochloride], the activity at 0.01 µM in data set [1] was found to be 19%. Also, in data set [1], the “pERK:tERK (10 nM 2 h A549)” value is 19. For the same compound, the Papp at 4 h, 50 μM in “PAMPA (pH 7.4)” (pH = 7.4 (Table 14)) worked out at 2 ×10⁻⁶ cm/s. Also, the half-life at 2 μM in data set [2] is 28.8 h; in data set [3], 3 h; in data set [4], 4.53 h. Moreover, the CLint scaled at 2 μM in data set [2] (setting [5]) was 0.13 L/h/kg; in data set [2] (read-out: CLint (mL/min/kg)), 0.13 L/h/kg; in data set [3] (setting [5]), 1.25 L/h/kg; in data set [3] (read-out: CLint (mL/min/kg)) it was 1.25 L/h/kg; in data set [4] (setting [5]), 3.62 L/h/kg; in data set [4] (read-out: CLint (mL/min/kg)) it was 3.62 L/h/kg. The “A − B Permeability Ranking” value in the data set with Caco-2 cells is “Higher”. The “CYP-3A4 (Testosterone) mean percentage CYP inhibition” value on CYP3A4 was determined as 24.6%.
Turning to `CNS(=O)(=O)Nc1cccc(Cc2c(CN(C)C)c3ccc(OC(=O)N(C)C)cc3oc2=O)c1Cl` [Compound 274, 3-(2-chloro-3-((N-methylsulfamoyl)amino)benzyl)-4-((dimethylamino)methyl)-2-oxo-2H-chromen-7-yl dimethylcarbamate], the half-life at 2 μM turned out to be 1.87 h in data set [2], 1.32 h in data set [3] and 3.13 h in data set [4]. The CLint scaled at 2 μM in data set [2] (setting [5]) was 2.01 L/h/kg; in data set [2] (read-out: CLint (mL/min/kg)), 2.01 L/h/kg; in data set [3] (setting [5]) it was 2.84 L/h/kg; in data set [3] (read-out: CLint (mL/min/kg)), 2.84 L/h/kg; in data set [4] (setting [5]), 5.23 L/h/kg; in data set [4] (read-out: CLint (mL/min/kg)), 5.23 L/h/kg. In addition, the “A − B Permeability Ranking” value in the data set with Caco-2 cells is “Higher”. Also, the “CYP-3A4 (Midazolam) mean percentage CYP inhibition” value at CYP3A4 is given as 20.1%. The “CYP-3A4 (Testosterone) mean percentage CYP inhibition” value at CYP3A4 came out at 50.4%.
As for `CCS(=O)(=O)Nc1cccc(Cc2c(CN3CCNCC3)c3cc(Cl)c(OC(=O)N(C)C)cc3oc2=O)c1Cl` [Compound 257, 6-chloro-3-(2-chloro-3-(ethylsulfonamido)benzyl)-2-oxo-4-(piperazin-1-ylmethyl)-2H-chromen-7-yl dimethylcarbamate hydrochloride], the “pERK:tERK (10 nM 2 h A549)” value in data set [1] is 17. This compound also came in with a Papp at 4 h, 50 μM in “PAMPA (pH 7.4)” (pH = 7.4 (Table 14)) of 8 ×10⁻⁶ cm/s. Moreover, the figures for the half-life at 2 μM in data set [2], in data set [3] and in data set [4] were 12 h, 1.75 h and 3.43 h, respectively. Further, the CLint scaled at 2 μM in data set [2] (setting [5]) was 0.312 L/h/kg; in data set [2] (read-out: CLint (mL/min/kg)) it was 0.313 L/h/kg; in data set [3] (setting [5]), 2.13 L/h/kg; in data set [3] (read-out: CLint (mL/min/kg)), 2.13 L/h/kg; in data set [4] (setting [5]) it was 4.78 L/h/kg; in data set [4] (read-out: CLint (mL/min/kg)) it was 4.78 L/h/kg. Also, the “A − B Permeability Ranking” value in the data set with Caco-2 cells was “Higher”. Besides, the “CYP-3A4 (Testosterone) mean percentage CYP inhibition” value at CYP3A4 was 66.0%.
